Laboratory results as given in patent US6960343B2, “Toll/interleukin-1 receptor adapter protein (TIRAP)” (Yale University School of Medicine, priority 2001, dated 2005).

Legend:
JNK = JNK phosphorylation in RAW cells, immunoblot; assay type: cell-based; details: 40 μM peptide
Method: (§1) FIG. 5, comprising FIGS. 5A through 5D, is a series of blots depicting inhibition of LPS- but not CpG-induced NF-κB activation, PKR phosphorylation, and JNK phosphorylation by TIRAP. (A) TIRAP peptide, but not a reverse sequence peptide, inhibited LPS-induced NF-κB activation. RAW κB cells pretreated for 1 h with either the TIRAP or control peptide were stimulated with LPS (10 ng/ml) for 5 h. Samples were stimulated in duplicate. (B) Pretreatment of RAW cells with TIRAP peptide blocks LPS-induced IκB-α degradation. RAW cells pretreated with the TIRAP peptide as indicated were either left unstimulated or stimulated with LPS (10 ng/ml) for the indicated time periods. […] Lysates (30 μg/sample) were analyzed by SDS-PAGE followed by immunoblotting with antibodies that specifically recognize phosphorylated PKR or phosphorylated JNK.
(§2) To determine whether a TIRAP mutant peptide inhibits PKR and JNK phosphorylation induced by LPS or CpG, RAW cells either untreated or pretreated with 40 μM of the TIRAP peptide were either left unstimulated or stimulated with either LPS (10 ng/ml) or CpG (10 μM) for the indicated time periods before harvest and lysis. Lysates (30 μg/sample) were analyzed by SDS-PAGE followed by immunoblotting with antibodies that specifically recognize phosphorylated PKR and JNK.

NF-κB = experiment: NF-κB-dependent luciferase reporter assay in RAW κB macrophage cell line; assay type: cell-based; details: RAW κB cells
Method: (§3) FIG. 5, comprising FIGS. 5A through 5D, is a series of blots depicting inhibition of LPS- but not CpG-induced NF-κB activation, PKR phosphorylation, and JNK phosphorylation by TIRAP. (A) TIRAP peptide, but not a reverse sequence peptide, inhibited LPS-induced NF-κB activation. RAW κB cells pretreated for 1 h with either the TIRAP or control peptide were stimulated with LPS (10 ng/ml) for 5 h. Samples were stimulated in duplicate. (B) Pretreatment of RAW cells with TIRAP peptide blocks LPS-induced IκB-α degradation. RAW cells pretreated with the TIRAP peptide as indicated were either left unstimulated or stimulated with LPS (10 ng/ml) for the indicated time periods. Lysates (30 μg/sample) were resolved by SDS-PAGE followed by immunoblotting with an anti-IκB-α antibody to assess IκB-α degradation. (C) TIRAP peptide inhibited LPS- but not CpG-induced NF-κB activity. RAW κB cells pretreated with the TIRAP peptide as indicated were stimulated with either LPS or CpG and harvested for reporter assay. (D) TIRAP peptide inhibited PKR and JNK phosphorylation induced by LPS but not CpG. RAW cells either untreated or pretreated with 40 μM of the TIRAP peptide were stimulated with either LPS or CpG as indicated. Lysates (30 μg/sample) were analyzed by SDS-PAGE followed by immunoblotting with antibodies that specifically recognize phosphorylated PKR or phosphorylated JNK. […]

IL-6 = IL-6 production by dendritic cells; assay type: cell-based, mice; details: DCs
Method: (§4) (A) Wild-type and MyD88^−/− dendritic cells (DCs) were induced with LPS or CpG and analyzed for expression of the costimulatory molecules B7.1 and […] flow cytometry. (B) Production of the cytokines, IL-12 and IL-6, was measured in cells that were untreated (none) or treated with LPS or CpG in the presence or absence of TIRAP peptide. (C) T cell proliferation was measured in wild-type DCs that were untreated (none), treated with LPS alone (LPS), or treated with LPS in the presence of increasing amounts of TIRAP peptide (LPS+TIRAP peptide). T cell proliferation was measured by incorporation of ^3H-thymidine into cells, expressed as cpm×10^3.
(§5) To determine the effects of the TIRAP peptide on cytokine production, DCs were treated with or without TIRAP peptide prior to stimulation with LPS or CpG (as described above), and the production of IL-12 and IL-6 was measured. Addition of TIRAP peptide inhibited production of IL-12 and IL-6 cytokines in response to stimulation with LPS, but not CpG (FIG. 6B).

dendritic cells (DCs) = experiment: Dendritic cell maturation, flow cytometry of costimulatory molecules B7.1 and B7.2; assay type: cell-based, mice; details: peptide 10 μM
Method: as §4
In view of the important role for TIRAP in mediating LPS-responsiveness in macrophages, the role of TIRAP in LPS-induced DC maturation was investigated. TIRAP is likely to be critical in these events because MyD88-deficient DCs retain the ability to upregulate costimulatory molecules in response to LPS stimulation (Kaisho 2001). To determine the effect of TIRAP on the expression of the costimulatory molecules B7.1 and B7.2, flow cytometry was performed on wild type and MyD88-/-DC. DCs were either unstimulated (shaded), stimulated with LPS (10 ng/ml) or CpG (10 μM) (black line), or pretreated with TIRAP peptide (10 μM) prior to stimulation with LPS or CpG (dashed line). […]

PKR = PKR phosphorylation in RAW cells, immunoblot; assay type: cell-based; details: 40 μM peptide
Method: as §1, §2

[1] = system: 1H3.1 TCR transgenic T cells; experiment: CD4 T cell proliferation stimulated by DCs, 3H-thymidine incorporation; assay type: cell-based; details: DCs from wild-type or MyD88-deficient mice, LPS, Eα peptide, 48 h culture
Method: as §4
Lastly, the effect of TIRAP peptide on T cell proliferation was evaluated. Stimulation of CD4 T cell proliferation by DCs treated with or without TIRAP peptide prior to stimulation with LPS was performed in the presence of varying concentrations of Eα peptide. DCs were fixed prior to incubation with 1H3.1 TCR transgenic T cells (specific for Eα peptide bound to I-A). Proliferation was measured by ^3H-thymidine incorporation for the last 24 h of a 48 h culture.

IL-12 = IL-12 production by dendritic cells; assay type: cell-based, mice; details: DCs
Method: as §4, §5

IκB-α = IκB-α degradation in RAW cells, immunoblot; assay type: cell-based
Method: as §3

Substance: TIRAP peptide: synthetic peptide corresponding to the P125 region of mTIRAP linked to the C-terminus of a peptide derived from antennapedia (RQIKIWFQNRRMKWKKLQLRDAAPGGAIVS; TIRAP/Antennapedia fusion protein)
- inhibition of JNK phosphorylation induced by CpG (JNK; CpG): not CpG
- inhibition of JNK phosphorylation induced by LPS (JNK; LPS): inhibited
- inhibition of LPS-induced NF-κB activation (NF-κB; 1 hour pretreatment, LPS 10 ng/ml 5 hours, TIRAP peptide 50 μM): potently inhibited
- inhibition of CpG-induced NF-κB activation (NF-κB; CpG 10 μM 5 hours): did not inhibit
- production of IL-6 in response to CpG (IL-6; peptide before CpG stimulation): not CpG
- production of IL-6 in response to LPS (IL-6; peptide before LPS stimulation): inhibited
- CpG-induced DC maturation (dendritic cells (DCs); DCs, CpG 10 μM): no effect
- LPS-induced upregulation of B7.1 and B7.2 molecules (dendritic cells (DCs); wild-type and MyD88-deficient DCs, LPS 10 ng/ml): abolished
- inhibition of PKR phosphorylation induced by CpG (PKR; CpG 10 μM): not CpG
- inhibition of PKR phosphorylation induced by LPS (PKR; LPS 10 ng/ml): inhibited
- T cell proliferation induced by peptide-treated DCs [1]: unable to induce T cell proliferation
- production of IL-12 in response to CpG (IL-12; peptide before CpG stimulation): not CpG
- production of IL-12 in response to LPS (IL-12; peptide before LPS stimulation): inhibited
- LPS-induced IκB-α degradation (IκB-α; 1 hour pretreatment with 40 μM peptide, LPS 10 ng/ml): did not induce IκB-α degradation
- inhibition of CpG-induced IκB-α degradation (IκB-α; CpG): did not inhibit
